Values of other authors as cited in patent US20110042247A1 (priority 2009, published 2011).
Like-named read-outs stand apart in the source and are kept apart here.

Solubility (dimethylsulphoxide (DMSO))	Solubility (ethanol and water (50:50))	Solubility (methanol)	Solubility (methanol/water (50/50))	Solubility (water)	Solubility (5% Tween 80 in water)	Solubility (5% dextrose in water)	Solubility (N-methylpyrrolidone)	Solubility (acetone)	Solubility (ethanol)	Solubility (methyl ethyl ketone)	Solubility (normal saline)	Solubility (polyethylene glycol)	Solubility (propylene glycol)	Solubility (water saturated octanol)	Compound
soluble	slightly soluble	slightly soluble	slightly soluble	sparingly soluble											Nc1ncn([C@H]2C[C@H](O)[C@@H](CO)O2)c(=O)n1 [Decitabine, 4-amino-1-(2-deoxy-β-D-erythro-pentofuranosyl)-1,3,5-triazin-2(1H)-one]
soluble	slightly soluble			sparingly soluble	sparingly soluble	sparingly soluble	sparingly soluble	insoluble	insoluble	insoluble	sparingly soluble	slightly soluble	slightly soluble	sparingly soluble	Nc1ncn([C@@H]2O[C@H](CO)[C@@H](O)[C@H]2O)c(=O)n1 [Azacitidine, 4-amino-1-β-D-ribofuranosyl-1,3,5-triazin-2(1H)-one]
